Target: EBI2 (Homo sapiens, UniProt P32249)
Experiment: Cell-based luminescent assay (EBI2 modulation)
Details: cell-based luminescence; 7a,25-OHC final assay concentration 80 nM; 60 minutes incubation; read-out: IC50
Summary of the method: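 Cells plated overnight at 37° C, then exposed to compound at 4-5 uM final with 80 nM 7a,25-OHC agonist for 60 min at 37° C. Luminescence read after 60 min detection at 25° C in the dark; values normalized to neutral and stimulator controls and plate-pattern corrected.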

Chain of EBI2 (P32249 whole entry): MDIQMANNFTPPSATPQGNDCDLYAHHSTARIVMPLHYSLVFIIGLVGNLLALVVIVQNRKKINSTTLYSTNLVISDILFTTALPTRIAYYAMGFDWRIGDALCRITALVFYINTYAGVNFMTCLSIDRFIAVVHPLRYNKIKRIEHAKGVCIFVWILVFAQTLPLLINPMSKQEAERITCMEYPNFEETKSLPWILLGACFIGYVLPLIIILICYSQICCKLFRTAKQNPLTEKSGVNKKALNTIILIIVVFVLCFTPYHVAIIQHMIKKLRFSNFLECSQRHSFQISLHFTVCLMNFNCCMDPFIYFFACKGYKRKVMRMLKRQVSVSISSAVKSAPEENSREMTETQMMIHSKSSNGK

Row | IC50 [nM] | SMILES
1 | < 100 | O=C(c1ccc(C(F)(F)F)cc1)N1CCN(C(=O)c2cc3cc(Br)ccc3[nH]2)CC1 [Compound C140, 5-bromoindol-2-yl 4-{[4-(trifluoromethyl)phenyl]carbonyl}piperazinyl ketone]
2 | < 100 | O=C(C#Cc1cccc(Cl)c1Cl)N1CCN(Cc2ccc(F)cc2C(F)(F)F)CC1 [Compound C141, 3-(2,3-dichlorophenyl)-1-(4-{[4-fluoro-2-(trifluoromethyl)phenyl]methyl}piperazinyl)prop-2-yn-1-one]
3 | < 100 | O=C(c1cc2cc(C(F)(F)F)ccc2s1)N1CCN(C(c2ccccc2)c2ccccc2)CC1 [Compound C142, 4-(diphenylmethyl)piperazinyl 5-(trifluoromethyl)benzo[b]thiophen-2-yl ketone]
4 | < 100 | CCC(=O)N1CCN(C(=O)/C=C/c2ccc(Br)cc2)CC1 [Compound C145, (2E)-3-(4-bromophenyl)-1-(4-propanoylpiperazinyl)prop-2-en-1-one]
5 | < 100 | O=C(/C=C/c1cc(F)c(F)c(F)c1)N1CCN(C(c2ccccc2)c2ccccc2)CC1 [Compound C147]
6 | < 100 | COc1ccc(C(=O)N2CCN(C(=O)c3cc4ccc(Cl)cc4[nH]3)CC2)cc1 [Compound C151, 6-chloroindol-2-yl 4-[(4-methoxyphenyl)carbonyl]piperazinyl ketone]
7 | < 100 | O=C(/C=C/c1ccc(Br)cc1)N1CCN(C(=O)c2ccc(-c3nnn[nH]3)cc2)CC1 [Compound C152, (2E)-3-(4-bromophenyl)-1-{4-[(4-(1H-1,2,3,4-tetraazol-5-yl)phenyl)carbonyl]piperazinyl}prop-2-en-1-one]
8 | < 100 | O=C(/C=C/c1ccc(Br)cc1)N1CCN(C(=O)c2ccc(B(O)O)cc2)CC1 [Compound C153, (E)-(4-(4-(3-(4-bromophenyl)acryloyl)piperazine-1-carbonyl)phenyl)boronic acid]
9 | < 100 | O=C(C=C(Br)c1ccc(Br)cc1)N1CCN(C(c2ccccc2)c2ccccc2)CC1 [Compound C155, 1-[4-(diphenylmethyl)piperazinyl]-3-bromo-3-(4-bromophenyl)prop-2-en-1-one]
10 | < 100 | O=C(c1cc2cc(F)ccc2s1)N1CCN(C(c2ccccc2)c2ccccc2)CC1 [Compound C156, 4-(diphenylmethyl)piperazinyl 5-fluorobenzo[b]thiophen-2-yl ketone]
11 | < 100 | O=C(C#Cc1cccc(Cl)c1)N1CCN(C(=O)c2ccc(F)cc2C(F)(F)F)CC1 [Compound C157, 3-(3-chlorophenyl)-1-(4-{[4-fluoro-2-(trifluoromethyl)phenyl]carbonyl}piperazinyl)prop-2-yn-1-one]
12 | < 100 | Cc1ccc2[nH]c(C(=S)N3CCN(C(c4ccccc4)c4ccccc4)CC3)cc2c1 [Compound C158, [4-(diphenylmethyl)piperazinyl](5-methylindol-2-yl)methane-1-thione]
13 | < 100 | O=C(C#Cc1ccc(F)cc1)N1CCN(C(c2ccccc2)c2ccccc2)CC1 [Compound C159, 1-[4-(diphenylmethyl)piperazinyl]-3-(4-fluorophenyl)prop-2-yn-1-one]
14 | < 100 | O=C(C#Cc1ccc(Br)cc1)N1CCN(C(=O)c2ccc(B(O)O)cc2)CC1 [Compound C160, 4-(4-(3-(4-bromophenyl)propioloyl)piperazine-1-carbonyl)phenylboronic acid]
15 | < 100 | O=C(/C=C/c1ccccc1)N1CCN(Cc2ccc([N+](=O)[O-])cc2)CC1 [Compound C161, (2E)-1-{4-[(4-nitrophenyl)methyl]piperazinyl}-3-phenylprop-2-en-1-one]
16 | 500 to 5000 | Cc1ccc2[nH]c(C(=O)NC3CCN(C(c4ccccc4)c4ccccc4)CC3)cc2c1 [Compound C162, N-[1-(diphenylmethyl)(4-piperidyl)](5-methylindol-2-yl)carboxamide]
17 | 500 to 5000 | O=C(c1cc[nH]c1)N1CCN(C(=O)c2cc3cc(Cl)ccc3[nH]2)CC1 [Compound C163, 5-chloroindol-2-yl 4-(pyrrol-3-ylcarbonyl)piperazinyl ketone]
18 | 500 to 5000 | O=C(c1ccc(Br)cc1)N1CCN(Cc2ccc(F)cc2C(F)(F)F)CC1 [Compound C164, 4-bromophenyl 4-{[4-fluoro-2-(trifluoromethyl)phenyl]methyl}piperazinyl ketone]
19 | 500 to 5000 | O=C(C#Cc1ccc(F)cc1F)N1CCN(C(=O)c2ccc(C(F)(F)F)cc2)CC1 [Compound C166, 3-(2,4-difluorophenyl)-1-(4-{[4-(trifluoromethyl)phenyl]carbonyl}piperazinyl)prop-2-yn-1-one]
20 | 500 to 5000 | O=C(C=Cc1ccc2c(c1)OCO2)N1CCN(Cc2ccc(C(F)(F)F)cc2)CC1 [Compound C167, 3-(2H-benzo[3,4-d]1,3-dioxolan-5-yl)-1-(4-{[4-(trifluoromethyl)phenyl]methyl}piperazinyl)prop-2-en-1-one]
21 | 500 to 5000 | O=C(c1nc2ccccc2s1)N1CCN(C(c2ccccc2)c2ccccc2)CC1 [Compound C168, benzothiazol-2-yl 4-(diphenylmethyl)piperazinyl ketone]
22 | 500 to 5000 | O=C(C#Cc1ccccc1C(F)(F)F)N1CCN(C(=O)c2ccc(C(F)(F)F)cc2)CC1 [Compound C169, 3-[2-(trifluoromethyl)phenyl]-1-(4-{[4-(trifluoromethyl)phenyl]carbonyl}piperazinyl)prop-2-yn-1-one]
23 | 500 to 5000 | O=C(C#Cc1ccc(Cl)c(Cl)c1)N1CCN(Cc2ccc(C(F)(F)F)cc2)CC1 [Compound C171, 3-(3,4-dichlorophenyl)-1-(4-{[4-(trifluoromethyl)phenyl]methyl}piperazinyl)prop-2-yn-1-one]
24 | 500 to 5000 | Cn1c(C(=O)N2CCN(C(c3ccccc3)c3ccccc3)CC2)cc2ccsc21 [Compound C173, 4-(diphenylmethyl)piperazinyl 6-methylthiopheno[3,2-d]pyrrol-5-yl ketone]
25 | 500 to 5000 | O=C(/C=C/c1cc(Br)ccc1F)N1CCN(S(=O)(=O)c2ccc(Br)cc2)CC1 [Compound C174, (2E)-3-(5-bromo-2-fluorophenyl)-1-{4-[(4-bromophenyl)sulfonyl]piperazinyl}prop-2-en-1-one]
26 | 500 to 5000 | O=C(c1cnc2ccccc2c1)N1CCN(Cc2ccc(Cl)cc2)CC1 [Compound C175, 4-[(4-chlorophenyl)methyl]piperazinyl 3-quinolyl ketone]

Row | SMILES | IC50 [nM]
27 | CC(C)(C)c1ccc(CN2CCN(C(=O)/C=C/c3ccc(Br)cc3)CC2)cc1 [Compound C144, (2E)-1-(4-{[4-(tert-butyl)phenyl]methyl}piperazinyl)-3-(4-bromophenyl)prop-2-en-1-one] | < 100
28 | COc1ccc(/C=C/C(=O)N2CCN(S(=O)(=O)c3ccc(Br)cc3)CC2)cc1 [Compound C146, (2E)-1-{4-[(4-bromophenyl)sulfonyl]piperazinyl}-3-(4-methoxyphenyl)prop-2-en-1-one] | < 100
29 | O=C(C#Cc1ccc(Br)cc1)N1CCN(C(=O)c2ccc(-c3nnn[nH]3)cc2)CC1 [Compound C149, 3-(4-bromophenyl)-1-{4-[(4-(5H-1,2,3,4-tetraazol-5-yl)phenyl)carbonyl]piperazinyl}prop-2-yn-1-one] | < 100
30 | O=C(c1ccc(Br)cc1)N1CCN(Cc2ccc(F)cc2)CC1 [Compound C165, 4-bromophenyl 4-[(4-fluorophenyl)methyl]piperazinyl ketone] | 500 to 5000

From patent US9776979B2, “EBI2 modulators” (Sanford-Burnham Medical Research Institute, priority 2013, dated 2017)
